According to PMC6733504, “Effects of flavoring compounds used in electronic cigarette refill liquids on endothelial and vascular function” (PLoS ONE, 2019):
Where two headings read alike, the source gives them in different places.

Assays:
[1] = rats, cited from earlier work
[2] = test system: Porcine aortic endothelial cells (endothelial sGC); experiment: DEA/NO-induced endothelial cGMP formation; assay type: cell-based; settings: for DEA/NO-stimulated endothelial cGMP formation: 1 mM
Experimental: Porcine aortic endothelial cells were isolated as described and cultured at 37°C, 5% CO2 for up to 3 passages in Dulbecco´s modified Eagle´s medium, containing 10% heat-inactivated fetal calf serum (FCS), 100 U/ml penicillin, 0.1 mg/ml streptomycin, and 1.25 μg/ml amphotericin B. Prior to experiments, cells were subcultured into 24-well plates (determination of cGMP formation) or 6-well plates (determination of L-citrulline formation).
Accumulation of intracellular 3',5'-cyclic GMP (cGMP) was determined as previously described. […] Reactions were started by addition of the Ca^2+ ionophore A 23187 (final concentration 1 μM) or the NO donor DEA/NO (final concentration 1 μM) and terminated after 4 minutes by removal of the incubation medium and addition of 0.01 M HCl. Within 1 h, intracellular cGMP was completely released into the supernatant and measured by radioimmunoassay.

[3] = test system: endothelial cells; settings: pig, 1 h, 1 mM
Experimental: To test for membrane integrity, endothelial cells were assayed for release of lactate dehydrogenase (LDH) into the culture medium. Subsequent to incubation with flavoring compounds (1 mM each) for 1 hour, 20-μl aliquots of the culture media were mixed with 200 μl of reagent buffer (1 mM pyruvate and 0.1 mM NAD^+ in PBS). The decrease in light absorbance at 340 nm was monitored using a diode array spectrophotometer (Hewlett Packard 8452A). Maximum LDH release was determined by treating the cells with 1% Triton X-100.

[4] = Estimated plasma concentration upon inhalation of cinnamaldehyde-containing aerosol; parameters: species or system human; settings: 10 ml of 6.9 mM liquid, plasma volume 3 liters, 100% bioavailability, no distribution, metabolism or clearance

## O=C/C=C/c1ccccc1 [Cinnamaldehyde, (2E)-3-Phenylprop-2-enal]
[1]; intravenous bolus 25 mg/kg
  Maximal plasma concentration: 20 µM
[1]; oral 500 mg/kg
  Maximal plasma concentration: about 2 μM
[2]; incubation for 15 minutes (Fig 2B)
  DEA/NO-stimulated endothelial cGMP formation: 25.3±3.9 % of controls
[2]; incubation for 75 minutes (Fig 2B)
  DEA/NO-stimulated endothelial cGMP formation: 10.4±2.4 % of controls
[2]; flavoring 1 mM, 15 min preincubation, 1 μM DEA/NO for 4 min (Fig 1B)
  DEA/NO-induced cGMP formation: about 35 % of controls
[3]
  LDH release (% of maximum): 1.8±0.50 % of maximum
[4]
  Estimated plasma concentration: 23 µM
